# Results reported in publication PMC6934184, “Selective DNA-PKcs inhibition extends the therapeutic index of localized radiotherapy and chemotherapy” (The Journal of Clinical Investigation, 2019).
# Biological target: T1, SPHK1 (Homo sapiens, UniProt Q9NYA1)
# T1 construct: purchased Thermo Fisher Scientific (Life Technologies) SelectScreen
# Assay: SelectScreen Adapta
# Type: biochemical
# How it was run: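 SelectScreen broad panel; activity (Z'LYTE, Adapta) plus binding formats. ATP: Km app for CSF1R Z'LYTE; 10 for CAMK1 Adapta. Readout = % per kinase.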
# T1 sequence (Q9NYA1 whole entry): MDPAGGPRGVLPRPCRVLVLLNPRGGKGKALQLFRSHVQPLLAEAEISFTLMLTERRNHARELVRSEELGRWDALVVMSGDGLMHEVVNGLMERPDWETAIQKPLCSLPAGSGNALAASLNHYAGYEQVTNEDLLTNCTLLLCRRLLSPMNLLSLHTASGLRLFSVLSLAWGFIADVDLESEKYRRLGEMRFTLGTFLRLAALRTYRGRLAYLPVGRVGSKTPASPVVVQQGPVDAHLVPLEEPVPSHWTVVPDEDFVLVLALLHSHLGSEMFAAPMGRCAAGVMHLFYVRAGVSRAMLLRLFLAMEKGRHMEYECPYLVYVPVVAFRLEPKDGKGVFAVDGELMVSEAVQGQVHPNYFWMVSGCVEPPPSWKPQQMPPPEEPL
compound,measurement,value
CN(C(=O)CN1CCOCC1)c1ccc2sc3c(-c4cccc5c(=O)cc(N6CC7CCC(C6)O7)oc45)cccc3c2c1 [NU5455],inhibition at 1 µM,2.7%
